Measured values as given in patent US20250145715A1, “B7-H3 TARGETING FUSION PROTEINS AND METHODS OF USE THEREOF” (GT Biopharma, Inc., priority 2021, published 2025).

Columns and labels:
[1] = system: H929 myeloma cells with MDSC; assay: Myeloma cytotoxicity assay with added MDSC, live cell imaging; type: cell-based, human; details: B7-H3 TriKE and NK cells, 48 hours live cell imaging
Description: FIGS. 10A-10D illustrate the effect B7-H3-TriKE on MDSC developed from CD33+ myeloid cells from healthy donors, when incubated with myeloma cells at 1:100 ratio. FIG. 10A is a graph showing MDSC (CD14+CD11b+) expression of B7-H3. FIG. 10B is a graph showing cell survival as measured by flow cytometry. FIG. 10C is a plot of live, CD14+ cells FIG. 10D is a graph illustrating H929 growth as measured over 48 hours by live cell imaging.
MDSC were developed from CD33+ myeloid cells from healthy donors using IL-6 and GM-CSF or by incubating them with myeloma cells at 1:100 ratio for seven days.

[2] = system: ovarian cancer cell lines; assay: NK cell activation against ovarian cancer lines vs K562 / Raji; type: cell-based
Description: ADCC was measured in a flow cytometry assay by evaluating degranulation via CD107a (lysosomal-associated membrane protein LAMP-1) and intracellular IFNγ production. Upon thawing, normal donor and patient-derived PBMCs or ascites cells were rested overnight (37° C., 5% CO2) in RPMI 1640 media supplemented with 10% fetal calf serum (RPMI-10). The next morning, they were suspended with tumor-target cells or media after washing twice with RPMI-10. Cells were then incubated with TriKEs or controls for 10 min at 37° C. Fluorescein isothiocyate (FITC)-conjugated anti-human CD107a monoclonal antibody (BD Biosciences, San Jose, CA, USA) was then added. […] Samples were washed and evaluated in an LSRII flow cytometer (BD Biosciences, San Jose, CA, USA).
The ability of cam1615B7-H3 TriKE to mediate NK cell activity against ovarian cancer cells was evaluated. […] In order to determine if the individual components of the TriKE could induce NK cell activity on their own, the individual cam16 VHH, IL-15, or anti-B7-H3 scFv components were incubated with PBMCs and OVCAR8 cells and activity was determined. […] NK cell activity, from normal donor PBMCs and ascites from the peritoneal cavity of ovarian cancer patients at the time of surgery, was assessed against MA-148 cells, another high-grade serous ovarian adenocarcinoma cell line (FIGS. 29A-29B and 30G-30H). […]

| Substance | MDSC-enhanced myeloma cell growth [1] | IFNγ production against ovarian cancer vs K562 natural cytotoxicity signal ([2]; K562 in the absence of TriKE) | fold NK cell activation (PBMC+Tumor+TriKE divided by PBMC+TriKE alone) ([2]; all ovarian cancer cell lines vs Raji) |
| --- | --- | --- | --- |
| B7-H3 TriKE: camelid nanobodies targeting CD16 and B7-H3 joined by IL-15 and two linkers; sequence table equates the name with cam1615B7-H3 | overcome |  |  |
| cam1615B7-H3: second-generation TriKE: humanized camelid anti-CD16 VHH, human wild-type IL-15, anti-B7-H3 mAb 376.96 scFv; SEQ ID NO:1 |  | stronger IFNγ production | higher than activation by the B7-H3-negative Raji line |
